Experimental data taken from PubChem BioAssay (NCI).
Values joined by “and” are separate entries in the source; they are usually repeats but may differ in a detail not shown here. Identical values can stand only once.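 Growth conditions: 96-well plates. Treatment: test compound, 48 hours, 5 concentrations. Analysis: linear interpolation between bracketing concentrations; unreached endpoints set to highest concentration. At the GI50, growth is halved. At the TGI there is no net growth.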

Legend:
Test in all cases: NCI-60 cell line screen, 48 h
[1] = tested on: DU-145 prostate
[2] = tested on: SF-268 CNS
[3] = tested on: KM12 colon
[4] = tested on: 786-0 renal
[5] = tested on: RXF 393 renal
[6] = tested on: CCRF-CEM leukemia
[7] = tested on: IGROV1 ovarian
[8] = tested on: MDA-N
[9] = tested on: SK-OV-3 ovarian
[10] = tested on: SK-MEL-28 melanoma

| SMILES | TGI [1] [µM] | TGI [2] | TGI [3] | TGI [4] [µM] | TGI [5] | TGI [6] [µM] | TGI [7] | TGI [8] [µM] | TGI [9] | TGI [10] | GI50 [3] [µM] | GI50 [5] [µM] | GI50 [6] [µM] | GI50 [7] [µM] | GI50 [10] [µM] |
| --- | --- | --- | --- | --- | --- | --- | --- | --- | --- | --- | --- | --- | --- | --- | --- |
| COC(=O)c1ccccc1C1=C([N+](=O)[O-])C(c2ccccc2)C(C#N)=C(N)O1 (centres undefined) | > 100 | > 100 µM | > 100 µM | > 100 | 95.2 µM | > 100 | > 100 µM | > 100 | > 100 µM | > 100 µM |  |  |  |  |  |
| CCCC(=O)NC(Nc1ccc(F)cc1)(C(F)(F)F)C(F)(F)F | > 100 | > 100 µM | > 100 µM | > 100 | > 100 µM | > 26.7 | > 100 µM | > 100 | > 100 µM | > 100 µM |  |  |  |  |  |
| COc1ccc([C@]23CCN4COC[C@@H]([C@H]42)C2(CC3)OCC(C)(C)CO2)cc1OC | > 100 | > 100 µM | > 100 µM | > 100 | > 100 µM | > 100 | > 100 µM | > 100 | > 100 µM | > 100 µM |  |  |  |  |  |
| COC1(c2cccs2)c2ccccc2C(OC)(c2cccs2)c2ccccc21 (centres undefined) | > 100 | > 100 µM | > 100 µM | > 100 | > 100 µM | > 100 | > 100 µM | > 100 | > 100 µM | > 100 µM |  |  |  |  |  |
| NC(=Nc1ccccc1)c1ccccc1N | > 100 | > 100 µM | > 100 µM | > 100 | > 100 µM | > 100 | > 100 µM | > 100 | > 100 µM | 64.4 µM |  |  |  |  |  |
| N=c1oc2ccccc2cc1-c1nc2ccccc2c(=O)[nH]1 | > 100 | > 100 µM | > 100 µM | > 100 | > 100 µM | > 100 | > 100 µM | > 100 | > 100 µM | > 100 µM |  |  |  |  |  |
| COC(=O)NC(Cc1ccccc1)NC(C)=O (centres undefined) | > 100 | > 100 µM | > 100 µM | > 100 | > 100 µM | > 100 | > 100 µM | > 100 | > 100 µM | > 100 µM |  |  |  |  |  |
| O=[N+]([O-])c1ccc(N2N=C(c3ccc4ccccc4c3O)CC2c2ccc(Cl)cc2)c([N+](=O)[O-])c1 (centres undefined) | > 100 | > 100 µM | > 100 µM | > 100 | > 100 µM | 42.7 | > 100 µM | 30.8 | > 100 µM | > 100 µM |  |  |  |  |  |
| CCN(CC)CCOC(=O)Cc1cccc2c(=O)cc(-c3ccccc3)oc12 | 54.6 | 62.5 µM and > 165 µM | 62.5 µM and > 165 µM | 62.5 | 58.7 µM and > 144 µM |  | 62.5 µM and > 216 µM | 62.5 | 62.5 µM and > 108 µM | 62.5 µM and > 237 µM | 83.5 | 52.6 | 336 | 82.9 | 115 |
| CCOC(=O)C(=O)CC(=O)C1=C(c2ccccc2OC)CC(c2cccs2)=CC1=O | > 100 | > 100 µM | > 100 µM | > 100 | > 100 µM | > 100 | > 100 µM | > 100 | > 100 µM | > 100 µM |  |  |  |  |  |
| O=[N+]([O-])c1cccc(Cl)c1Oc1ccc(S(=O)(=O)/N=C(\NO)Nc2ccc(Cl)cc2)cc1 | 30 | 28 µM | 31.2 µM | 25.7 | 30.9 µM | 29.7 | 35.6 µM | 26 | 31.8 µM | 34.7 µM |  |  |  |  |  |
| CCCN(CCC)C1CCc2c(ccc3cc[nH]c23)C1 (centres undefined) | > 100 | > 100 µM | > 100 µM | > 100 | > 100 µM | 73.3 | > 100 µM | > 100 | > 100 µM | 89.4 µM |  |  |  |  |  |
| O=[N+]([O-])c1ccc(O)c(/C=N/c2nc(-c3ccccc3)cs2)c1 | > 87.1 | 78 µM | > 100 µM | > 100 | 45.1 µM | > 100 | 74.3 µM | > 83.6 | 89.5 µM | > 100 µM |  |  |  |  |  |
| CC12ON(P(=O)(c3ccccc3)c3ccccc3)C(C)(c3ccccc31)c1ccccc12 | > 100 | > 100 µM | > 100 µM | > 100 | > 100 µM | > 100 | > 100 µM | > 100 | > 100 µM | > 100 µM |  |  |  |  |  |
| CC(=O)OCCCCn1cc(Cn2ccc(=O)n(Cc3cn(CCCCOC(C)=O)nn3)c2=O)nn1 | > 100 | > 100 µM | > 100 µM | > 100 | > 100 µM | > 100 | > 100 µM | > 100 | > 100 µM | > 100 µM |  |  |  |  |  |
| O=C(c1ccc(O)c([N+](=O)[O-])c1)c1ccc(O)c([N+](=O)[O-])c1 | > 100 | > 100 µM | > 100 µM | > 100 | > 100 µM | > 100 | > 100 µM | > 100 | > 100 µM | > 100 µM |  |  |  |  |  |
| COC12C=CC(C=C1C#N)CC2 (centres undefined) (tested in a mixture with another compound) | > 100 | > 100 µM | > 100 µM | > 100 | > 100 µM | > 100 | > 100 µM | > 100 | > 100 µM | > 100 µM |  |  |  |  |  |
